Source: paper PMC8169668, “Discovery of a cooperative mode of inhibiting RIPK1 kinase” (Cell Discovery, 2021)

How the values were obtained:
Assay type in all cases: cell-based
RIPK1 [1] = molecular target: T1, RIPK1 (Homo sapiens, UniProt Q13546, L159V/D180S); experiment: p-S166 autophosphorylation blot, dose response
T1 construct: residues 1–330, Flag-tagged, in 293T cells
T1 sequence (Q13546 1-330 L159V/D180S): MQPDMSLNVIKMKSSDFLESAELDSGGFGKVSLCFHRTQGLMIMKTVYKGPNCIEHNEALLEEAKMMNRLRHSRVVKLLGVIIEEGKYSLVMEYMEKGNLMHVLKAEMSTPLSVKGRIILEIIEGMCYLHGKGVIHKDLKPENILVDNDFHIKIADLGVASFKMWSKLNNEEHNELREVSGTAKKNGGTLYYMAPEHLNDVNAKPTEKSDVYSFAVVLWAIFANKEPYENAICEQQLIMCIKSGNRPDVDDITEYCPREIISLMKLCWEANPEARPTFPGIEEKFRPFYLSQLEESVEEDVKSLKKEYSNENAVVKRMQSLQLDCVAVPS

RIPK1 [2] = molecular target: T2, RIPK1 (Homo sapiens, UniProt Q13546, S161A); experiment: CETSA; p-S166 autophosphorylation blot
T2 construct: HA-tagged hRIPK1 S161A reconstituted in RIPK1-deficient Jurkat cells
T2 sequence (Q13546 1-671 S161A): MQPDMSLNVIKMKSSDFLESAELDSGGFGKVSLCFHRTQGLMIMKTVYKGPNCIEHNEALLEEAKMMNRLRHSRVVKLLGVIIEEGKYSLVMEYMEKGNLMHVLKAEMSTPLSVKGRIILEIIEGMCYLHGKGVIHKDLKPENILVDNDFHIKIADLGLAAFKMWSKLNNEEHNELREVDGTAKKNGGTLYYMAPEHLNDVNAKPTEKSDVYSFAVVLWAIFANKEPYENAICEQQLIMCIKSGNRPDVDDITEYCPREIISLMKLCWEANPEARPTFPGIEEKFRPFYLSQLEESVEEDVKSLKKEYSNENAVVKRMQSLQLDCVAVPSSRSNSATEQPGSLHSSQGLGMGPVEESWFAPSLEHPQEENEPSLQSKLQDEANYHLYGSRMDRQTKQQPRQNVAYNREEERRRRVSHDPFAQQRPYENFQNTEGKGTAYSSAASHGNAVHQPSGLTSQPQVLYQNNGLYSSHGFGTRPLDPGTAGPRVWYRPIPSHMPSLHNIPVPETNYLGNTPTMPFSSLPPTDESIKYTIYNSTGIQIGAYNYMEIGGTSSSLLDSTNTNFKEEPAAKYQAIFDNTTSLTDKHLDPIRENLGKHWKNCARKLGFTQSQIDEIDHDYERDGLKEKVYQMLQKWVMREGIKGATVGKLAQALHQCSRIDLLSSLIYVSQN

RIPK1 [3] = molecular target: T3, RIPK1 (Mus musculus, UniProt Q60855); experiment: CETSA in MEFs; p-S166 blot of mRIPK1-FKBP in L929 cells
T3 construct: endogenous RIPK1 (MEFs)
T3 sequence (Q60855 1-656): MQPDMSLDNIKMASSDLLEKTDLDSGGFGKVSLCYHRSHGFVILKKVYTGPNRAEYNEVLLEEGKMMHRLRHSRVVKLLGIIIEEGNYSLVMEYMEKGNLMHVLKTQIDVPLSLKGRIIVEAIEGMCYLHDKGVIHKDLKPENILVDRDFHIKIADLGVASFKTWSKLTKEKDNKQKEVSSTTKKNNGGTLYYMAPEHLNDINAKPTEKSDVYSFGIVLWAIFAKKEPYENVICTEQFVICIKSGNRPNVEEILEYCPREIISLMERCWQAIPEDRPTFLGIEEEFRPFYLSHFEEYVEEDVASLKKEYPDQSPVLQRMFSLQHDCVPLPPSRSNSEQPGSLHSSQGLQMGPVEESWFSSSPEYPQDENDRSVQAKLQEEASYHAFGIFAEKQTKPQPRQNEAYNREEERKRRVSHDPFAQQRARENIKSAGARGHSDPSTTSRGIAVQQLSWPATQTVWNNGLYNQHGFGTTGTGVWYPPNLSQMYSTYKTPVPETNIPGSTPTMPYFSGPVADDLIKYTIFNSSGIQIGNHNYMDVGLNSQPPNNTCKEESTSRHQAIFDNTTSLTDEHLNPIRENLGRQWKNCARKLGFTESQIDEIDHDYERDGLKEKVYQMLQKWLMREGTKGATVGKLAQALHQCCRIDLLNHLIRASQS

Cc1ccc(C2CC(=O)NC(SCC(=O)Nc3nccs3)=C2C#N)cc1 (stereo not drawn) [Nec-34]
p-S166 autophosphorylation blot, dose response (RIPK1 [1]): Nec-34 was more potent in inhibiting L159V/D180S hRIPK1 than WT-hRIPK1
CETSA; p-S166 autophosphorylation blot (RIPK1 [2]): Nec-34 stabilized reconstituted S161A mutant RIPK1 as well as WT-RIPK1 in the soluble fraction under elevated temperatures
CETSA in MEFs; p-S166 blot of mRIPK1-FKBP in L929 cells (RIPK1 [3]): Nec-34 is able to bind endogenous RIPK1 in situ to increase its thermo-resistance
